In ChEMBL document CHEMBL1201862, “PubChem BioAssay data set” (2004):
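Cultured in 96-well plates, cells were exposed to test compound for 48 hours across five concentrations. Abbreviation: GI50, concentration required for 50% inhibition of growth.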 Activity calls are given as the source filed them. Rule as the data show it: active = GI50 up to about 1.1 µM and inactive = higher. Where a SMILES comes first, the peptide text is derived from it. [ ]: non-standard residue; d: D form. The star is where a group is joined. ξ: configuration not given here. ξPhe(4-NO2) = NC(Cc1ccc([N+](=O)[O-])cc1)C(=O)O; Boc = CC(C)(C)OC(=O)*; OBn = c1ccc(CO*)cc1

Columns and labels:
Test in all cases: NCI anticancer screen, dose series, 48 h
786-0 = system: 786-0
A549 = system: A549
ACHN = system: ACHN
BT-549 = system: BT-549
DU-145 = system: DU-145
HCT-15 = system: HCT-15
HOP-92 = system: HOP-92
K562 = system: K562
MCF7 = system: MCF7
Malme-3M = system: Malme-3M
NCI-H23 = system: NCI-H23
OVCAR-4 = system: OVCAR-4
RPMI-8226 = system: RPMI-8226
SF-295 = system: SF-295
SK-MEL-28 = system: SK-MEL-28
SK-MEL-5 = system: SK-MEL-5
SNB-19 = system: SNB-19
SNB-75 = system: SNB-75
SR = system: SR

Row | SMILES | GI50 (786-0) | GI50 (A549) | GI50 (ACHN) | GI50 (BT-549) | GI50 (DU-145) | GI50 (HCT-15) | GI50 (HOP-92) | GI50 (K562) | GI50 (MCF7) | GI50 (Malme-3M) | GI50 (NCI-H23) | GI50 (OVCAR-4) | GI50 (RPMI-8226) | GI50 (SF-295) | GI50 (SK-MEL-28) | GI50 (SK-MEL-5) | GI50 (SNB-19) | GI50 (SNB-75) | GI50 (SR)
1 | Cc1nn(-c2ccccc2)c2nc3c(c(C)nn3-c3ccccc3)c(-c3ccccc3Br)c12 | > 100 µM (inactive) | 8.95 µM (inactive) | > 100 µM (inactive) | > 100 µM (inactive) | > 100 µM (inactive) | > 100 µM | > 100 µM (inactive) | > 100 µM (inactive) | > 100 µM (inactive) | > 100 µM (inactive) | > 100 µM (inactive) | > 100 µM (inactive) | > 100 µM (inactive) | 57.3 µM (inactive) | > 100 µM (inactive) | > 100 µM (inactive) | > 100 µM (inactive) | > 100 µM (inactive) | > 100 µM (inactive)
2 | NCCNCC(O)CO (stereo not drawn) | > 100 µM (inactive) | > 100 µM (inactive) | > 100 µM (inactive) | > 100 µM (inactive) | > 100 µM (inactive) | > 100 µM | > 100 µM (inactive) | > 100 µM (inactive) | > 100 µM (inactive) | > 100 µM (inactive) | > 100 µM (inactive) | > 100 µM (inactive) | > 100 µM (inactive) | > 100 µM (inactive) | > 100 µM (inactive) | > 100 µM (inactive) | > 100 µM (inactive) | > 100 µM (inactive) | > 100 µM (inactive)
3 | COc1ccc(-c2c3c(n(C4OC(CO)C(O)C(O)C4O)c(=S)c2C#N)CC(C)(C)CC3=O)cc1 (stereo not drawn) | > 100 µM (inactive) | > 100 µM (inactive) | > 100 µM (inactive) | > 100 µM (inactive) | > 100 µM (inactive) | > 100 µM | > 100 µM (inactive) | > 100 µM (inactive) | > 100 µM (inactive) | > 100 µM (inactive) | > 100 µM (inactive) | > 100 µM (inactive) | 89.7 µM (inactive) | > 100 µM (inactive) | > 100 µM (inactive) | > 100 µM (inactive) | > 100 µM (inactive) | 96.6 µM (inactive) | 74.5 µM (inactive)
4 | Clc1ccc2c(c1)N(CCCN1CCCC13CCCCC3)c1ccccc1S2 | 10.8 µM (inactive) | 17.3 µM (inactive) | 20.3 µM (inactive) | 14.9 µM (inactive) | 16.6 µM (inactive) | 17.1 µM | 10.4 µM (inactive) | 3.95 µM (inactive) | 14.3 µM (inactive) | 14.2 µM (inactive) | 16.1 µM (inactive) | 15.4 µM (inactive) | 2.79 µM (inactive) | 15.6 µM (inactive) | 14.9 µM (inactive) | > 41.9 µM (inactive) | 13.7 µM (inactive) |  | 4.39 µM (inactive)
5 | N#CC1=C(N)OC(c2ccc([N+](=O)[O-])cc2)C1(C#N)C#N (stereo not drawn) | 9.66 µM (inactive) | 24.4 µM (inactive) | 10.2 µM (inactive) | 17.1 µM (inactive) | 17.9 µM (inactive) | 10.5 µM | 7.94 µM (inactive) | 37.8 µM (inactive) | 15.6 µM (inactive) | 10.2 µM (inactive) | 15.3 µM (inactive) | 17.8 µM (inactive) | 7.78 µM (inactive) | 33.7 µM (inactive) | 9.4 µM (inactive) | 9.48 µM (inactive) | 22.4 µM (inactive) | 20.6 µM (inactive) | 3.97 µM (inactive)
6 | COc1ccc2nc(N/N=C/C(C)=N/Nc3cc(C)c4cc(OC)ccc4n3)cc(C)c2c1 | 14 µM (inactive) | 19.7 µM (inactive) | 26.7 µM (inactive) | 74.3 µM (inactive) | 18.1 µM (inactive) | 9.75 µM | 36.2 µM (inactive) | 3.9 µM (inactive) | 14.3 µM (inactive) | 50.9 µM (inactive) | 23.1 µM (inactive) | 18.5 µM (inactive) | 7.33 µM (inactive) | 25.1 µM (inactive) | 35.2 µM (inactive) | 26.5 µM (inactive) | 23.1 µM (inactive) | 21.9 µM (inactive) | 5.11 µM (inactive)
7 | Cc1cc(CNC(=O)OCc2ccccc2)c(C)c2c1Oc1ccccc1O2 | 15 µM (inactive) | 20.9 µM (inactive) | 43.8 µM (inactive) | 62.8 µM (inactive) | 71 µM (inactive) | 97.5 µM | 1.26 µM (inactive) | > 100 µM (inactive) | 49.5 µM (inactive) | 75.9 µM (inactive) | 24.3 µM (inactive) | 21.3 µM (inactive) | > 100 µM (inactive) | 31.8 µM (inactive) | > 100 µM (inactive) | > 100 µM (inactive) | 25.5 µM (inactive) | 11.8 µM (inactive) | > 100 µM (inactive)
8 | Cc1cnc2sn(-c3ccc([N+](=O)[O-])cc3)c(=O)c2c1 | 56.8 µM (inactive) | 64.3 µM (inactive) | 29.4 µM (inactive) | 43.2 µM (inactive) | 99.3 µM (inactive) | > 100 µM | 33.3 µM (inactive) | > 100 µM (inactive) | > 100 µM (inactive) | > 100 µM (inactive) | 42.9 µM (inactive) | 94.8 µM (inactive) | > 100 µM (inactive) | 45.3 µM (inactive) | > 100 µM (inactive) | > 100 µM (inactive) | 50.4 µM (inactive) | 23.8 µM (inactive) | > 100 µM (inactive)
9 | COC(=O)/C=C/c1ccc2c(c1)[C@H](C(=O)OC)[C@@H](c1ccc(O)cc1)O2 | 30 µM (inactive) | 34.2 µM (inactive) | 42.6 µM (inactive) | 16.8 µM (inactive) | 71.3 µM (inactive) | 5.02 µM | 59 µM (inactive) | 4.06 µM (inactive) | 9.02 µM (inactive) | 20.6 µM (inactive) | 46.8 µM (inactive) | 29.3 µM (inactive) | > 10 µM (inactive) | 31.4 µM (inactive) | 23.1 µM (inactive) | 14.2 µM (inactive) | 21.9 µM (inactive) |  | 6.62 µM (inactive)
10 | Cc1c(F)c(N)c2c(=O)cc(-c3ccc(NC(=O)C(N)CCCNC(=N)N)c(F)c3)oc2c1F (stereo not drawn) | 29 µM (inactive) | 3.68 µM (inactive) | 19.7 µM (inactive) | 21.8 µM (inactive) | 29.6 µM (inactive) | 19.7 µM | 49.5 µM (inactive) |  | 0.0893 µM (active) | 27.5 µM (inactive) | 27.9 µM (inactive) | 0.141 µM (active) | > 33.5 µM (inactive) | > 37.6 µM (inactive) | 24.7 µM (inactive) | 19.7 µM (inactive) | 24.8 µM (inactive) |  | 43 µM (inactive)
11 | O=C(O)c1ccccc1CC1Cc2ccccc2C1 | > 100 µM (inactive) | > 100 µM (inactive) | > 100 µM (inactive) | > 100 µM (inactive) | > 100 µM (inactive) | > 100 µM | > 100 µM (inactive) | > 100 µM (inactive) | > 100 µM (inactive) | > 100 µM (inactive) | > 100 µM (inactive) | > 100 µM (inactive) | > 100 µM (inactive) | > 100 µM (inactive) | > 100 µM (inactive) | > 100 µM (inactive) | > 100 µM (inactive) | > 100 µM (inactive) | > 100 µM (inactive)
12 | CC(C)(C)OC(=O)NC(Cc1ccc([N+](=O)[O-])cc1)C(=O)NCC(=O)OCc1ccccc1 (stereo not drawn) (Boc-[ξPhe(4-NO2)]-Gly-OBn) | 11.4 µM (inactive) | 47.4 µM (inactive) | 23 µM (inactive) | 25.7 µM (inactive) | 30.1 µM (inactive) | 19.4 µM | 34 µM (inactive) | 15 µM (inactive) | 28.2 µM (inactive) | 23.8 µM (inactive) | 20.2 µM (inactive) | 25.9 µM (inactive) | 21 µM (inactive) | 20.5 µM (inactive) | 24 µM (inactive) | 19.4 µM (inactive) | 55.3 µM (inactive) | 18.4 µM (inactive) | 31.6 µM (inactive)
13 | CCOC(=O)N1CCN(c2ccc3ccc(N)nc3n2)CC1 | > 100 µM (inactive) | > 100 µM (inactive) | > 100 µM (inactive) | > 100 µM (inactive) | > 100 µM (inactive) | > 100 µM | > 100 µM (inactive) | > 100 µM (inactive) | > 100 µM (inactive) | > 100 µM (inactive) | > 100 µM (inactive) | > 100 µM (inactive) | > 100 µM (inactive) | > 100 µM (inactive) | > 100 µM (inactive) |  | > 100 µM (inactive) | > 100 µM (inactive) | > 100 µM (inactive)
14 | O=C1c2ccccc2C(=O)c2c1ccc1c2OCO1 | > 100 µM (inactive) | > 100 µM (inactive) | > 10 µM (inactive) | > 100 µM (inactive) | > 100 µM (inactive) | > 100 µM | > 100 µM (inactive) |  | > 100 µM (inactive) | > 100 µM (inactive) | > 100 µM (inactive) | > 100 µM (inactive) | > 100 µM (inactive) | > 100 µM (inactive) | > 100 µM (inactive) | > 100 µM (inactive) | > 100 µM (inactive) | 23.1 µM (inactive) | > 100 µM (inactive)
15 | COc1cc(CSc2ccc(O)cc2)cc(O)c1O | 36.2 µM (inactive) | 46.7 µM (inactive) | 28.1 µM (inactive) | 18.3 µM (inactive) | 44.5 µM (inactive) | 18.7 µM | 22.7 µM (inactive) | 31.6 µM (inactive) | 17.6 µM (inactive) | 37.6 µM (inactive) | 41.8 µM (inactive) |  | 15.7 µM (inactive) | 23.2 µM (inactive) | 46.2 µM (inactive) | > 10 µM (inactive) | 37 µM (inactive) | 32.1 µM (inactive) | 21.7 µM (inactive)
